One experiment concerns the target Ba/F3 ERBB2 YVMA (Homo sapiens, UniProt P04626, DUP772-775, cells depend on it). Kind of experiment: Cell viability assay (CellTiter Glo), Ba/F3 cells engineered to express ERBB2 YVMA. As to conditions: Ba/F3 cells expressing human ERBB2 YVMA mutant, 72 hours, read-out: Ba/F3 ERBB2 YVMA, IC50. The class given is cell-based, mouse. In outline: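 Ba/F3 cells (IL-3-independent via stable retroviral human ERBB2 YVMA) seeded 3000/well and given compound from about 10 μM to 0.51 nM in three-fold steps, DMSO ≤0.1%, 72 h at 37° C. Viability by CellTiter Glo luminescence, normalized to DMSO and media-only controls. Sigmoidal nonlinear fit.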
In general terms: ATP-based viability assays read luminescence as a measure of living cells.

In experiment [1] the target is T1, phosphorylated ERBB2 (pERBB2) (Homo sapiens, UniProt P04626).
T1 construct: endogenous in cells; host or cells: BT-474
T1 sequence (P04626 23-1255): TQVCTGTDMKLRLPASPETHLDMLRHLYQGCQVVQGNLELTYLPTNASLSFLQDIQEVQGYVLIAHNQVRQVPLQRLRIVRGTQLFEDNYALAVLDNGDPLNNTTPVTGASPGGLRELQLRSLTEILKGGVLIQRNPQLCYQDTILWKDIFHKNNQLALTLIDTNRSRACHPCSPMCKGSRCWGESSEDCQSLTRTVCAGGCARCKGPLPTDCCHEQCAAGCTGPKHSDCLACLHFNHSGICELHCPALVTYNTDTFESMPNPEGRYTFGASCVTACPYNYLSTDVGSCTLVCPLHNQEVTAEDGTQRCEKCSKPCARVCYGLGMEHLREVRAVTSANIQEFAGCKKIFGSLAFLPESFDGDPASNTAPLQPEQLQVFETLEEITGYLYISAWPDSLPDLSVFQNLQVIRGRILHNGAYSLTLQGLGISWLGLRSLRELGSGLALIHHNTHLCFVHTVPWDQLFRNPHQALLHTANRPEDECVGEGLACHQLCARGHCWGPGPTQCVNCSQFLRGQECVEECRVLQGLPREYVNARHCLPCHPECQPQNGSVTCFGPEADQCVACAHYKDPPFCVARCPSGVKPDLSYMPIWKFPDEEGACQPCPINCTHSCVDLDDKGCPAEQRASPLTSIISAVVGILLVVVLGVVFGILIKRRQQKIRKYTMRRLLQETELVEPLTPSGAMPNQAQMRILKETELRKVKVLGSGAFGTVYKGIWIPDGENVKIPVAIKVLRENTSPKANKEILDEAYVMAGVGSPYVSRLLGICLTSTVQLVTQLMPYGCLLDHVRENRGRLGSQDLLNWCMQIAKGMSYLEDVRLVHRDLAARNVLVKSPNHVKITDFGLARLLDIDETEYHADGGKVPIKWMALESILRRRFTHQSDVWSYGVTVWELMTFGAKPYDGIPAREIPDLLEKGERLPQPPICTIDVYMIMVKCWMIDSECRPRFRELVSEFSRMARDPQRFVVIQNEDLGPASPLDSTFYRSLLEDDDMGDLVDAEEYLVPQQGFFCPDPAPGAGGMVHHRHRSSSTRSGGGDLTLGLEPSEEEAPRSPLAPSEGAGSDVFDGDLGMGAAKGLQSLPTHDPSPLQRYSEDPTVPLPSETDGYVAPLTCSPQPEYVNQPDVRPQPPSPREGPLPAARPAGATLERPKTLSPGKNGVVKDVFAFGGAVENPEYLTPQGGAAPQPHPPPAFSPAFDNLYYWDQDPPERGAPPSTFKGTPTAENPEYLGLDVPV
Kind of experiment: Detection of phosphorylated ERBB2 (pERBB2) by ELISA in BT-474 cells. Format: cell-based. The following applies: four hour incubation. In outline:
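BT-474 cells were treated with compounds (fourfold dilutions, 10 μM to 0.01 nM final) for 4 h at 37 °C, then lysed. pERBB2 in lysates was quantified by ELISA with an HRP anti-phosphotyrosine detection antibody and TMB read at 450 nm; % relative activity was normalized to no-cell and 0.1% DMSO controls.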
For orientation: ELISA stands for enzyme-linked immunosorbent assay.

Experiment [2] has as its target T2, phosphorylated EGFR (pEGFR) (Homo sapiens, UniProt P00533).
T2 construct: performed to measure phosphorylated EGFR levels using A431 cells (10% FBS); endogenous in cells; host or cells: A431
Kind of experiment: Detection of phosphorylated EGFR (pEGFR) by AlphaLISA in EGF-stimulated A431 cells. The class given is cell-based. The following applies: A431 cells (10% FBS), 4 hours incubation, EGF 30 ng/mL for 10 minutes. In outline:
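A431 cells in 10% FBS were preincubated with compound for 4 h at 37 °C, then stimulated with 30 ng/mL EGF for 10 min and lysed. pEGFR read by AlphaLISA. % inhibition normalised to DMSO and staurosporine controls; IC50 from four-parameter curve fit.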

Chain of Ba/F3 ERBB2 YVMA (P04626 with tags, fused parts or gaps DUP772-775): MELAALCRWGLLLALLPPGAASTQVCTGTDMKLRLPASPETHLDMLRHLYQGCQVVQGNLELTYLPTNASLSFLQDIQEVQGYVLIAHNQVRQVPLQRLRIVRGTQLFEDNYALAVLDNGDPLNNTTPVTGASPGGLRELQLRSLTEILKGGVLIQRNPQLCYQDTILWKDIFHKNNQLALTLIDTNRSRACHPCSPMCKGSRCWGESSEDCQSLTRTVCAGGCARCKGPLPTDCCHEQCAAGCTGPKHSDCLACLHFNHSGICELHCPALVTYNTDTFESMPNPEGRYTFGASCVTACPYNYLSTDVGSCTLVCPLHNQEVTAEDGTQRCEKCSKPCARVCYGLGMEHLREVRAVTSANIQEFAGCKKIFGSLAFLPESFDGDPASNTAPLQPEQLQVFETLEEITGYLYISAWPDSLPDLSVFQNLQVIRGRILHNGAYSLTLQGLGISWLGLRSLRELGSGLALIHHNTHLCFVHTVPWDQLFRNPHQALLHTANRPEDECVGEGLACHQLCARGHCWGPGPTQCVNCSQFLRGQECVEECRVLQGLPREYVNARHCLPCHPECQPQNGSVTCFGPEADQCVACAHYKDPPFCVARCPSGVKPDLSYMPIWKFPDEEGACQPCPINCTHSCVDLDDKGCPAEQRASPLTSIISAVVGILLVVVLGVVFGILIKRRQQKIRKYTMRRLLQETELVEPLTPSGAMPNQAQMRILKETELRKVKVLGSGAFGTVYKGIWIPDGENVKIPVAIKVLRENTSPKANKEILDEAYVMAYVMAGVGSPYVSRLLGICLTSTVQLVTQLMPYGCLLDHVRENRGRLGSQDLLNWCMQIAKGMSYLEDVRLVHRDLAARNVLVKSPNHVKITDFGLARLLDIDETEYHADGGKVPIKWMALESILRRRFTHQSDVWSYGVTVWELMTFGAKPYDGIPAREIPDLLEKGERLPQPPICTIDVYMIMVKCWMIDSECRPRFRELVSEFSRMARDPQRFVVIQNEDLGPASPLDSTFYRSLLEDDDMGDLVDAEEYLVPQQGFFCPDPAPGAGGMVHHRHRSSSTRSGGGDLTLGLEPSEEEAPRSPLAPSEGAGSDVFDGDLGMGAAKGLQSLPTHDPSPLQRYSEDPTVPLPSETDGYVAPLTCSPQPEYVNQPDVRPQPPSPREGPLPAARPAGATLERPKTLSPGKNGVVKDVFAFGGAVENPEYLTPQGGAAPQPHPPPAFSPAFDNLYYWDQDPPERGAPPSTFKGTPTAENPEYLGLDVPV
T2 sequence (P00533 25-1210): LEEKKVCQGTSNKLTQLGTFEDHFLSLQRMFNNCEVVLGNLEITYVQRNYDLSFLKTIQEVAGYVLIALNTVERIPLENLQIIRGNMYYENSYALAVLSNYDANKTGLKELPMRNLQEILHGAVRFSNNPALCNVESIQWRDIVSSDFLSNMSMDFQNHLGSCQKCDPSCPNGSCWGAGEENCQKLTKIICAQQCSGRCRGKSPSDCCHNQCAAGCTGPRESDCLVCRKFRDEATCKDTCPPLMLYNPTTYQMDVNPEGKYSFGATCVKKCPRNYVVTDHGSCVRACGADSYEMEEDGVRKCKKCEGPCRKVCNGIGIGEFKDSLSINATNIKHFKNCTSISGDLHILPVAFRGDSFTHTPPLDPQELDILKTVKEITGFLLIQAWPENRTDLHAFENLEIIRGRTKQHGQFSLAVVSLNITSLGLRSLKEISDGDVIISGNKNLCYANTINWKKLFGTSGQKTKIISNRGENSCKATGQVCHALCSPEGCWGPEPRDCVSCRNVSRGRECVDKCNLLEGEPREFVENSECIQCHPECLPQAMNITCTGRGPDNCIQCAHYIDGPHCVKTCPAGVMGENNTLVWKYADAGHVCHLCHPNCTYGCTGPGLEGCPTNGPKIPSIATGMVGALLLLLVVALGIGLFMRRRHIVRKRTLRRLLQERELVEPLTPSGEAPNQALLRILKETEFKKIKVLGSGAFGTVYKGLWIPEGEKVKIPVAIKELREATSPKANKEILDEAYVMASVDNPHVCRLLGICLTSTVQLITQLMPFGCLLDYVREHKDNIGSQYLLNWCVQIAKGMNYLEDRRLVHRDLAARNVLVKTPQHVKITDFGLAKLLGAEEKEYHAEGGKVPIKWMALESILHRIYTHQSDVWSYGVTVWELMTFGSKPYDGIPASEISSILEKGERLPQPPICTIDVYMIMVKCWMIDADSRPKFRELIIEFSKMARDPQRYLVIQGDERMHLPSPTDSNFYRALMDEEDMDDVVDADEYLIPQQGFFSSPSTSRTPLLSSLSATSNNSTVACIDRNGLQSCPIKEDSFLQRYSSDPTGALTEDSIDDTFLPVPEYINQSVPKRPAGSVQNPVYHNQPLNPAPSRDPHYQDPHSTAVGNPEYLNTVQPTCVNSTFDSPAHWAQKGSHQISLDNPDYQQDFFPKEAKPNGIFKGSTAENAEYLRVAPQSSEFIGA

For orientation: IC50 means the concentration that inhibits the measured activity by half. `CN(C)C/C=C/C(=O)N1CCN2C[C@@H]1COc1c2ccc2ncnc(Nc3ccc(Oc4ccn5ncnc5c4)c(F)c3)c12` [Compound 76, (E)-1-((3R)-13-((4-([1,2,4]triazolo[1,5-a]pyridin-7-yloxy)-3-fluorophenyl)amino)-2,3,5,6-tetrahydro-4H-3,7-methano[1,4,7]oxadiazonino[2,3-f]quinazolin-4-yl)-4-(dimethylamino)but-2-en-1-one]: the GI50 on Ba/F3 ERBB2 YVMA stood at 5.86 nM. Besides, the IC50 in experiment [1] was found to be 5.66 nM; in experiment [2] it was 381 nM.

Regarding `CN(C)C/C=C/C(=O)N1CCN2C[C@@H]1COc1c2ccc2ncnc(Nc3ccc(Oc4ccn5ncnc5c4)cc3)c12` [Compound 77, (E)-1-((3R)-13-((4-([1,2,4]triazolo[1,5-a]pyridin-7-yloxy)phenyl)amino)-2,3,5,6-tetrahydro-4H-3,7-methano[1,4,7]oxadiazonino[2,3-f]quinazolin-4-yl)-4-(dimethylamino)but-2-en-1-one], on Ba/F3 ERBB2 YVMA, the GI50 stood at 14.4 nM. Also, the IC50 in experiment [1] was 6.51 nM; in experiment [2], 460 nM.

`CN(C)C/C=C/C(=O)N1CCN2C[C@@H]1COc1c2ccc2ncnc(Nc3ccc(Oc4ccn5ncnc5c4)cc3F)c12` [Compound 78, (E)-1-((3R)-13-((4-([1,2,4]triazolo[1,5-a]pyridin-7-yloxy)-2-fluorophenyl)amino)-2,3,5,6-tetrahydro-4H-3,7-methano[1,4,7]oxadiazonino[2,3-f]quinazolin-4-yl)-4-(dimethylamino)but-2-en-1-one]: the GI50 on Ba/F3 ERBB2 YVMA turned out to be 10.9 nM. The IC50 in experiment [1] came out at 8.87 nM; in experiment [2], 341 nM.

Consider `Cc1cc(Nc2ncnc3ccc4c(c23)OC[C@H]2CN4CCN2C(=O)/C=C/CN(C)C)ccc1Oc1ccc2c(c1)nnn2C` [Compound 79, (E)-4-(dimethylamino)-1-((3R)-13-((3-methyl-4-((1-methyl-1H-benzo[d][1,2,3]triazol-5-yl)oxy)phenyl)amino)-2,3,5,6-tetrahydro-4H-3,7-methano[1,4,7]oxadiazonino[2,3-f]quinazolin-4-yl)but-2-en-1-one], for which the GI50 at Ba/F3 ERBB2 YVMA was determined as 6.04 nM. For the same compound, the values for the IC50 in experiment [1] and in experiment [2] were 14.2 nM and 84.4 nM, respectively.

On to `Cc1cc(Nc2ncnc3ccc4c(c23)OC[C@H]2CN4CCN2C(=O)/C=C/C2CN(C)C2)ccc1Oc1ccn2ncnc2c1` [Compound 80, (E)-1-((3R)-13-((4-([1,2,4]triazolo[1,5-a]pyridin-7-yloxy)-3-methylphenyl)amino)-2,3,5,6-tetrahydro-4H-3,7-methano[1,4,7]oxadiazonino[2,3-f]quinazolin-4-yl)-3-(1-methylazetidin-3-yl)prop-2-en-1-one], for which the GI50 on Ba/F3 ERBB2 YVMA was determined as 77.2 nM. Besides, the half-maximal inhibitory concentration (IC50) in experiment [1] came out at 22.8 nM; in experiment [2], 701 nM.

For `Cc1cc(Nc2ncnc3ccc4c(c23)OC[C@H]2CN4CCN2C(=O)/C=C/C2(F)CN(C)C2)ccc1Oc1ccn2ncnc2c1` [Compound 81, (E)-1-((3R)-13-((4-([1,2,4]triazolo[1,5-a]pyridin-7-yloxy)-3-methylphenyl)amino)-2,3,5,6-tetrahydro-4H-3,7-methano[1,4,7]oxadiazonino[2,3-f]quinazolin-4-yl)-3-(3-fluoro-1-methylazetidin-3-yl)prop-2-en-1-one], on Ba/F3 ERBB2 YVMA, the GI50 turned out to be 8.51 nM. For the same compound, the values for the IC50 in experiment [1] and in experiment [2] were 17.2 nM and 785 nM, respectively.

Regarding `Cc1cc(Nc2ncnc3cnc4c(c23)OC[C@H]2CN4CCN2C(=O)/C=C/CN(C)C)ccc1Oc1ccn2ncnc2c1` [Compound 82, (E)-1-((3R)-13-((4-([1,2,4]triazolo[1,5-a]pyridin-7-yloxy)-3-methylphenyl)amino)-2,3,5,6-tetrahydro-4H-3,7-methanopyrimido[5′,4′:4,5]pyrido[3,2-b][1,4,7]oxadiazonin-4-yl)-4-(dimethylamino)but-2-en-1-one], on Ba/F3 ERBB2 YVMA, the GI50 was 6.9 nM. Also, the IC50 is 7.9 nM in experiment [1] and 199 nM in experiment [2].

In the case of `Cc1cc(Nc2ncnc3cnc4c(c23)OC[C@H]2CN4CCN2C(=O)/C=C/CN(C)C)c(F)cc1Oc1ccn2ncnc2c1` [Compound 83, (E)-1-((3R)-13-((4-([1,2,4]triazolo[1,5-a]pyridin-7-yloxy)-2-fluoro-5-methylphenyl)amino)-2,3,5,6-tetrahydro-4H-3,7-methanopyrimido[5′,4′:4,5]pyrido[3,2-b][1,4,7]oxadiazonin-4-yl)-4-(dimethylamino)but-2-en-1-one], on Ba/F3 ERBB2 YVMA, the GI50 was found to be 14 nM. For the same compound, the figures for the IC50 in experiment [1] and in experiment [2] were 17.3 nM and 344 nM, respectively.

`Cc1ccc(Oc2ccc(Nc3ncnc4ccc5c(c34)OC[C@H]3CN5CCN3C(=O)/C=C/CN(C)C)cc2C)cn1` [Compound 84, (E)-4-(dimethylamino)-1-((3R)-13-((3-methyl-4-((6-methylpyridin-3-yl)oxy)phenyl)amino)-2,3,5,6-tetrahydro-4H-3,7-methano[1,4,7]oxadiazonino[2,3-f]quinazolin-4-yl)but-2-en-1-one]: the GI50 on Ba/F3 ERBB2 YVMA was determined as 2.95 nM. In addition, the values for the IC50 in experiment [1] and in experiment [2] were 14.6 nM and 60.1 nM, respectively.

`Cc1cc(Nc2ncnc3ccc4c(c23)OC[C@H]2COCCN42)ccc1Oc1ccn2ncnc2c1` [Compound 85, (R)—N-(4-([1,2,4]triazolo[1,5-a]pyridin-7-yloxy)-3-methylphenyl)-6a,7,9,10-tetrahydro-6H-[1,4]oxazino[4′,3′:4,5][1,4]oxazino[2,3-f]quinazolin-4-amine]: the GI50 on Ba/F3 ERBB2 YVMA was 181 nM. The IC50 in experiment [1] was 17.2 nM; in experiment [2], over 10000 nM.

Regarding `Cc1cc(Nc2ncnc3ccc4c(c23)OC[C@H]2CN4CCN2C(=O)/C=C/[C@@H](C)N(C)C)ccc1Oc1ccn2ncnc2c1` [Compound 88, (4R,E)-1-((3R)-13-((4-([1,2,4]triazolo[1,5-a]pyridin-7-yloxy)-3-methylphenyl)amino)-2,3,5,6-tetrahydro-4H-3,7-methano[1,4,7]oxadiazonino[2,3-f]quinazolin-4-yl)-4-(dimethylamino)pent-2-en-1-one formic acid], the GI50 at Ba/F3 ERBB2 YVMA is 60.3 nM. The IC50 stood at 44.3 nM in experiment [1] and 2820 nM in experiment [2].

In the case of `Cc1cc(Nc2ncnc3ccc4c(c23)OC[C@H]2CN4CCN2C(=O)/C=C/[C@H](C)N(C)C)ccc1Oc1ccn2ncnc2c1` [Compound 89, (4S,E)-1-((3R)-13-((4-([1,2,4]triazolo[1,5-a]pyridin-7-yloxy)-3-methylphenyl)amino)-2,3,5,6-tetrahydro-4H-3,7-methano[1,4,7]oxadiazonino[2,3-f]quinazolin-4-yl)-4-(dimethylamino)pent-2-en-1-one], the GI50 on Ba/F3 ERBB2 YVMA was determined as 264 nM. The IC50 is 172 nM in experiment [1] and over 10000 nM in experiment [2].

`Cc1cc(Nc2ncnc3ccc4c(c23)OC[C@H]2CN4CCN2C(=O)/C=C/[C@@H](C)N(C)C)c(F)cc1Oc1ccn2ncnc2c1` [Compound 90, (4R,E)-1-((3R)-13-((4-([1,2,4]triazolo[1,5-a]pyridin-7-yloxy)-2-fluoro-5-methylphenyl)amino)-2,3,5,6-tetrahydro-4H-3,7-methano[1,4,7]oxadiazonino[2,3-f]quinazolin-4-yl)-4-(dimethylamino)pent-2-en-1-one]: the GI50 on Ba/F3 ERBB2 YVMA came to 28.7 nM. Moreover, the 50% inhibitory concentration (IC50) was 50.4 nM in experiment [1] and over 10000 nM in experiment [2].
